Data taken from patent US10047075B2, “Pyridines and pyrimidines and use thereof” (Purdue Pharma L.P., priority 2014, dated 2018).
Like-named read-outs stand apart in the source and are kept apart here.

Experiments:
human Nav1.7 = human Nav1.7 (Homo sapiens, UniProt Q15858); experiment: FLIPR or FLIPR TETRA sodium dye assay with KCl and test article pre-incubation (CoroNa Green, veratridine + scorpion venom); type: cell-based
hNav1.7 = hNav1.7 (Homo sapiens, UniProt Q15858); experiment: Electrophysiology (EP) assay, whole-cell patch clamp, hNav1.7 expressing HEK-293 cells; type: cell-based; conditions: hNav1.7 HEK-293 cells; affinity for the inactivated state; read-out: Nav1.7 Activity (μM) EP assay Ki
Sequence of hNav1.7 (Q15858 1-1977 isoform Q15858-3): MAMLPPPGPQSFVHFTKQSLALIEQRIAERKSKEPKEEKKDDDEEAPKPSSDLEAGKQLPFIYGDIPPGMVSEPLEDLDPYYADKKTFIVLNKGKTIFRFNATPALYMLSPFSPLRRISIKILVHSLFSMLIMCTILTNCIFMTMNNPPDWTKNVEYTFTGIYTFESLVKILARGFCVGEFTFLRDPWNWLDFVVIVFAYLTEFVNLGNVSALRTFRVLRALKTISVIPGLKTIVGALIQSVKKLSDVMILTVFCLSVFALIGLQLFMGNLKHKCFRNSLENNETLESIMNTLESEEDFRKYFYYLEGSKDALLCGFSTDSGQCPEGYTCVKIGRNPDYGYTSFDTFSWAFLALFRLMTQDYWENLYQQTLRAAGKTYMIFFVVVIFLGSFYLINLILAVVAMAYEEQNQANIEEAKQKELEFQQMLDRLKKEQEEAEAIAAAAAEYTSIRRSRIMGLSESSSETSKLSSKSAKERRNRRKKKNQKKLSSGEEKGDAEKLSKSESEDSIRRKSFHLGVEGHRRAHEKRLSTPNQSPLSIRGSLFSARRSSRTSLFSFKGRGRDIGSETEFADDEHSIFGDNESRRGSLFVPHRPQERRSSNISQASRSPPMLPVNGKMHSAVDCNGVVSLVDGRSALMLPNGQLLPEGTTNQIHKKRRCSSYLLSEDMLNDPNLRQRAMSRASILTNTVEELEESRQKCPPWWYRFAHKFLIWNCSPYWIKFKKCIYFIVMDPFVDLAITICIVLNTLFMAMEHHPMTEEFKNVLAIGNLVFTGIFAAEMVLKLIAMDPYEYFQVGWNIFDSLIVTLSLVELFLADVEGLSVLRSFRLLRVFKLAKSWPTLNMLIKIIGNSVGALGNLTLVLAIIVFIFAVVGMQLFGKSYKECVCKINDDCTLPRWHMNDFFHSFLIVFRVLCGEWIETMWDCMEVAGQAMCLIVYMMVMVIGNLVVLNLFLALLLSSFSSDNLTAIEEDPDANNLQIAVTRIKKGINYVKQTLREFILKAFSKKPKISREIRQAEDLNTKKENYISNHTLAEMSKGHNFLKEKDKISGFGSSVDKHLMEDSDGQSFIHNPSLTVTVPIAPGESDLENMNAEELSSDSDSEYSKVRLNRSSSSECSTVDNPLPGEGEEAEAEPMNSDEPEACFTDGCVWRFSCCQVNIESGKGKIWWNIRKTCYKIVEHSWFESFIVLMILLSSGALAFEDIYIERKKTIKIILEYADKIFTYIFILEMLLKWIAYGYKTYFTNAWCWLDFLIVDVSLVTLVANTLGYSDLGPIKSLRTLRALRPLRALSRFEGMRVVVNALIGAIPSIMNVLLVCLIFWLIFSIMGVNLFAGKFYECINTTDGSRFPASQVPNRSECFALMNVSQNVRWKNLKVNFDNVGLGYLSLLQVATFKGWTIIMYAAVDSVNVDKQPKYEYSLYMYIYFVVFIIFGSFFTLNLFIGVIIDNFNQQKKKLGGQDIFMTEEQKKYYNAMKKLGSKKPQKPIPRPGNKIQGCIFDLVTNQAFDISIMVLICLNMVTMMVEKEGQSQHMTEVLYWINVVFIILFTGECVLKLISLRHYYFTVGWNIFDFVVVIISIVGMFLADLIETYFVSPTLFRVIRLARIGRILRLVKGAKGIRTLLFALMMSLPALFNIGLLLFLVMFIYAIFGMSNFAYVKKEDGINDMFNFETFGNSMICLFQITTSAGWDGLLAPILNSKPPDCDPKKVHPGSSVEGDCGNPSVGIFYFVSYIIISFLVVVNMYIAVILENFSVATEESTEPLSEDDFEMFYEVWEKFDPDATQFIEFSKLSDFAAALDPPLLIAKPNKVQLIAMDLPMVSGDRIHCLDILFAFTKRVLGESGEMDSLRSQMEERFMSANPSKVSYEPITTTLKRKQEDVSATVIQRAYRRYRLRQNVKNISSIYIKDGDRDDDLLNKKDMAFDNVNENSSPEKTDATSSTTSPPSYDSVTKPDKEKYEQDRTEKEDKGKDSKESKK
Method: The hNav1.7 expressing HEK-293 cells are plated on 35 mm culture dishes pre-coated with poly-D-lysine in standard DMEM culture media (Mediatech, Inc., Herndon, Va.) and incubated in a 5% CO2 incubator at 37° C. Cultured cells are used approximately 12-48 hours after plating.
The hNav1.7 expressing HEK-293 cells are plated on tissue culture flasks in standard DMEM culture media (Mediatech, Inc.) and incubated in a 5% CO2 incubator at 37° C. Cultured cells are used approximately 12-48 hours after plating.
On the day of experimentation, the 35 mm dish is placed on the stage of an inverted microscope equipped with a perfusion system that continuously perfuses the culture dish with fresh recording media. A gravity driven superfusion system is used to apply test solutions directly to the cell under evaluation. This “shooter” system consists of an array of glass pipettes connected to a motorized horizontal translator. The outlet of the shooter is positioned approximately 100 μm from the cell of interest.
Whole cell currents are recorded using the whole-cell patch clamp configuration using an Axopatch 200B amplifier (Axon Instruments, Foster City Calif.), 1322A A/D converter (Axon Instruments) and pClamp software (v. 8; Axon Instruments) and stored on a personal computer. Gigaseals are formed and the whole-cell configuration is established in voltage clamp mode, and membrane currents generated by hNav1.7 channels are recorded. Borosilicate glass pipettes with resistance values between 1.5 and 2.0 MΩ when filled with pipette solution are used and series resistance (<5 MΩ) is compensated by 75-80%. Signals are sampled at 50 kHz and low pass filtered at 3 kHz.
Automated Electrophysiology: On the day of experimentation, cells are prepared by removing media and digesting with appropriate enzymes to suspend cells in external solution.
Whole cell currents are recorded using the whole-cell patch clamp configuration using an Patchliner (Nanion Technologies, Munich Germany), EPC 10 quadro amplifiers (HEKA, Bellmore, N.Y.) and PatchControl HT 10905 (Nanion Technologies) and PatchMaster v2x73 software (HEKA) and stored on a personal computer. Gigaseals are formed and the whole-cell configuration is established in voltage clamp mode, and membrane currents generated by hNav1.7 are recorded. NPC-16 chips have resistance values between 1.0 and 2.0 MΩ when filled with pipette solution and series resistance (<5 MΩ). Signals are sampled at 25 kHz and low pass filtered at 3 kHz.
After establishing the whole-cell configuration in voltage clamp mode, voltage protocols are run to establish the 1) test potential (Vmax), 2) holding potential (Vh), and 3) the conditioning potential for each cell.
After establishing the whole-cell configuration in voltage clamp mode, a standard I-V protocol is run to determine the potential at which the maximal current (Imax) is elicited. This potential is the test potential (Vt). To determine a conditioning potential at which 100% of channels are in the inactivated state, a standard steady-state inactivation (SSIN) protocol is run using a series of fifteen 100 ms-long depolarizing prepulses, incrementing in 10 mV steps, immediately followed by a 5 ms testing pulse to Vmax. This protocol also permits determination of the holding potential at which all channels are in the resting state.
For compounds causing significant retardation of recovery from inactivation, an estimate of the affinity for the inactivated state of the channel (Ki) is generated using the following protocol. From the negative, no residual inactivation, holding potential, the cell is depolarized to the conditioning voltage for 2-5 seconds, returned to the negative holding potential for 10-20 ms to relieve fast inactivation and then depolarized to the test potential for ˜15 ms. This voltage protocol is repeated every 10-15 seconds, first to establish a baseline in the absence of the test compound, then in the presence of the test compound. […]

Nav1.3 = Nav1.3 (Homo sapiens, UniProt Q9NY46); conditions: read-out: TTX IC50; cited from earlier work
Nav1.6 = Nav1.6 (Homo sapiens, UniProt Q9UQD0); conditions: read-out: TTX IC50; cited from earlier work
Nav1.8 = Nav1.8 (Homo sapiens, UniProt Q9Y5Y9); conditions: read-out: TTX IC50; cited from earlier work
Sequence of Nav1.8 (Q9Y5Y9 whole entry, looked up): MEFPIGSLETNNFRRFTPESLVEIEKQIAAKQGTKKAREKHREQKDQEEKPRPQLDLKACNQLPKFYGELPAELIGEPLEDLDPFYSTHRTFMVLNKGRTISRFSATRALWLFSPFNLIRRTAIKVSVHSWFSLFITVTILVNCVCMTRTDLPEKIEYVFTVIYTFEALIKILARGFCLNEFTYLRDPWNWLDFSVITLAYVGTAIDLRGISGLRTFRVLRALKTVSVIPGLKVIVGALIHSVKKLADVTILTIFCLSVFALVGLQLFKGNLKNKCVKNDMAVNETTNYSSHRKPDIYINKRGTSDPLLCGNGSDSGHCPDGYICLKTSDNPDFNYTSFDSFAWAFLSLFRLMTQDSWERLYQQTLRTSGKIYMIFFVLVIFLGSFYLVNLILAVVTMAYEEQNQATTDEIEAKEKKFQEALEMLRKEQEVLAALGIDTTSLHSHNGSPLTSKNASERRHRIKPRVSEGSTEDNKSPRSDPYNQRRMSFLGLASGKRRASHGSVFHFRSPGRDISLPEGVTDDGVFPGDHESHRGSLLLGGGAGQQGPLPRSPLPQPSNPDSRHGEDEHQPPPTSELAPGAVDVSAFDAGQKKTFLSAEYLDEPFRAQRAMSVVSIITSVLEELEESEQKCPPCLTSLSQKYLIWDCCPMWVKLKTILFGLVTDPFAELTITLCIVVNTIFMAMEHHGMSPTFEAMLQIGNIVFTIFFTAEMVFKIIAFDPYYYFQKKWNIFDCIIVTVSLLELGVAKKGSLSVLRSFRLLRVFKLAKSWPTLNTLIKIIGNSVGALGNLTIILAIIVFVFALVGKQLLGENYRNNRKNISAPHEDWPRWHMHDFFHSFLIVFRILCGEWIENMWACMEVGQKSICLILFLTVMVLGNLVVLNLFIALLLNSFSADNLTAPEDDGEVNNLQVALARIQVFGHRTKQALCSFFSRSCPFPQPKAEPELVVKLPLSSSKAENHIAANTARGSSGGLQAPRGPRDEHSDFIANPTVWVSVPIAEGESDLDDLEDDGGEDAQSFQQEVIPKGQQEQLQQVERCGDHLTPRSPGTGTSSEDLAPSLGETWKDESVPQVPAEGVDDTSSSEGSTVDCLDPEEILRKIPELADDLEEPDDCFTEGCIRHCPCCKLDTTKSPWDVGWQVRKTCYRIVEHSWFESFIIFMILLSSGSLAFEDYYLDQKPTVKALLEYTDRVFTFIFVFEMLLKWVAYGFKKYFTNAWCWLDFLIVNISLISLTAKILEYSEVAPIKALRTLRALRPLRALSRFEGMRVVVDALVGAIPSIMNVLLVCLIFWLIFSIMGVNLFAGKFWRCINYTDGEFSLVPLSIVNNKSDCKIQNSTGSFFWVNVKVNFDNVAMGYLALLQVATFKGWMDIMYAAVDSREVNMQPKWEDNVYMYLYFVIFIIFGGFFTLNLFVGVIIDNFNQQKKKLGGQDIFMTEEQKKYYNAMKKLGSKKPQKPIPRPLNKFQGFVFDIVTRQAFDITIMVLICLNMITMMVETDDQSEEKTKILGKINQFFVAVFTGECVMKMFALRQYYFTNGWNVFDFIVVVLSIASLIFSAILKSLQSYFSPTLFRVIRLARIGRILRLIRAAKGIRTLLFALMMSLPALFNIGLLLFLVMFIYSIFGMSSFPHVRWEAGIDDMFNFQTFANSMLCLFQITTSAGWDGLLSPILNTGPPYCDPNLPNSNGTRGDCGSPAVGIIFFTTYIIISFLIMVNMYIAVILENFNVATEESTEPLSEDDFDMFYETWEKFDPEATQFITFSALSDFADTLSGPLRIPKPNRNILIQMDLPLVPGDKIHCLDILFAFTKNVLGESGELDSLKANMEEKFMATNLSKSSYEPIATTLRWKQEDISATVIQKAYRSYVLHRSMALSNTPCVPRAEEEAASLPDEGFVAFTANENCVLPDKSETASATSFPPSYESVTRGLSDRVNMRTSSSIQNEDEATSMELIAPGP

Nav1.9 = Nav1.9 (Homo sapiens, UniProt Q9UI33); conditions: read-out: TTX IC50; cited from earlier work
Nav1.1 = Nav1.1 (Homo sapiens, UniProt P35498); conditions: read-out: TTX IC50; cited from earlier work
Nav1.2 = Nav1.2 (Homo sapiens, UniProt Q99250); conditions: read-out: TTX IC50; cited from earlier work
[1] = recombinant human Nav1.7 in HEK293 cells

Sequence of human Nav1.7 (Q15858 1-1977 isoform Q15858-3): as the sequence (Q15858 1-1977 isoform Q15858-3) above

| Compound | IC50 (human Nav1.7; [1]) [µM] | Ki (hNav1.7) [µM] | also measured |
| --- | --- | --- | --- |
| OC[C@@H](O)c1cccc(-c2ccc3c(c2)COCCN3c2ccc(C(F)(F)F)cc2)n1 [Compound 62, (S)-1-(6-(1-(4-(trifluoromethyl)phenyl)-1,2,3,5-tetrahydrobenzo[e][1,4]oxazepin-7-yl)pyridin-2-yl)ethane-1,2-diol] | 0.419 ± 0.058 | 0.458 ± 0.078 | – |
| C[C@H](Nc1cc(C(N)=O)nc(-c2ccc3c(c2)OCCCN3c2ccc(C(F)(F)F)cc2)n1)C(N)=O [Compound 63, (S)-6-((1-amino-1-oxopropan-2-yl)amino)-2-(5-(4-(trifluoromethyl)phenyl)-2,3,4,5-tetrahydrobenzo[b][1,4]oxazepin-8-yl)pyrimidine-4-carboxamide] | 0.246 ± 0.029 | 0.344 ± 0.1 | – |
| CN1CCN(c2ccc(C(F)(F)F)cc2)c2ccc(-c3cccc(C(N)=O)n3)cc2C1 [Compound 85, 6-(4-methyl-1-(4-(trifluoromethyl)phenyl)-2,3,4,5-tetrahydro-1H-benzo[e][1,4]diazepin-7-yl)picolinamide] | 0.607 ± 0.086 | 0.399 ± 0.2 | – |
| OC[C@@H](O)c1cccc(-c2ccc3c(c2)CN(CC2CC2)CCN3c2ccc(C(F)(F)F)cc2)n1 [Compound 87, (S)-1-(6-(4-(cyclopropylmethyl)-1-(4-(trifluoromethyl)phenyl)-2,3,4,5-tetrahydro-1H-benzo[e][1,4]diazepin-7-yl)pyridin-2-yl)ethane-1,2-diol] | – | 0.548 ± 0.089 | IC50 (human Nav1.7): 1.32 ± 0.133 µM |
| CC(=O)N1CCN(c2ccc(C(F)(F)F)cc2)c2ccc(-c3cccc(C(N)=O)n3)cc2C1 [Compound 91, 6-(4-acetyl-1-(4-(trifluoromethyl)phenyl)-2,3,4,5-tetrahydro-1H-benzo[e][1,4]diazepin-7-yl)picolinamide] | 0.375 ± 0.062 | 0.3 ± 0.033 | – |
| CC(=O)N1CCN(c2ccc(C(F)(F)F)cc2)c2ccc(-c3cccc([C@H](O)CO)n3)cc2C1 [Compound 96, (S)-1-(7-(6-(1,2-dihydroxyethyl)pyridin-2-yl)-1-(4-(trifluoromethyl)phenyl)-1,2,3,5-tetrahydro-4H-benzo[e][1,4]diazepin-4-yl)ethan-1-one] | 0.662 ± 0.035 | 0.627 ± 0.134 | – |
| NC(=O)N1CCN(c2ccc(C(F)(F)F)cc2)c2ccc(-c3cccc([C@H](O)CO)n3)cc2C1 [Compound 98, (S)-7-(6-(1,2-dihydroxyethyl)pyridin-2-yl)-1-(4-(trifluoromethyl)phenyl)-1,2,3,5-tetrahydro-4H-benzo[e][1,4]diazepin-4-carboxamide] | – | 0.451 ± 0.092 | IC50 (human Nav1.7): 0.973 ± 0.099 µM |
| O=C(CO)N1CCN(c2ccc(C(F)(F)F)cc2)c2ccc(-c3cccc([C@H](O)CO)n3)cc2C1 [Compound 99, (S)-1-(7-(6-(1,2-dihydroxyethyl)pyridin-2-yl)-1-(4-(trifluoromethyl)phenyl)-1,2,3,5-tetrahydro-4H-benzo[e][1,4]diazepin-4-yl)-2-hydroxyethan-1-one] | 0.896 ± 0.186 | 1.23 ± 0.364 | – |
| NC(=O)CN1CCN(c2ccc(C(F)(F)F)cc2)c2ccc(-c3cccc([C@H](O)CO)n3)cc2C1 [Compound 103, (S)-2-(7-(6-(1,2-dihydroxyethyl)pyridin-2-yl)-1-(4-(trifluoromethyl)phenyl)-1,2,3,5-tetrahydro-4H-benzo[e][1,4]diazepin-4-yl)acetamide] | – | 0.299 ± 0.068 | IC50 (human Nav1.7): 1.05 ± 0.055 µM |
| NC(=O)c1cccc(-c2ccc3c(c2)OCCC3c2ccc(C(F)(F)F)cc2)n1 (stereo not drawn) [Compound 110, 6-(4-(4-(trifluoromethyl)-phenyl)chroman-7-yl)-picolinamide] | 0.142 ± 0.038 | 0.161 ± 0.07 | – |
| C[C@H](Nc1cc(C(N)=O)nc(-c2ccc3c(c2)OCCC3c2ccc(C(F)(F)F)cc2)n1)C(N)=O (stereo partly drawn) [Compound 111, 6-(((S)-1-amino-1-oxopropan-2-yl)amino)-2-(4-(4-(trifluoromethyl)phenyl)chroman-7-yl)pyrimidine-4-carboxamide] | 0.379 ± 0.044 | 0.459 ± 0.1 | – |
| CC(C)CN1CCN(S(C)(=O)=O)Cc2cc(-c3cccc([C@H](O)CO)n3)ccc21 [Compound 124, (S)-1-(6-(1-isobutyl-4-(methylsulfonyl)-2,3,4,5-tetrahydro-1H-benzo-[e][1,4]diazepin-7-yl)pyridin-2-yl)ethane-1,2-diol] | – | 2.14 ± 0.586 | – |
| CC(C)CN1CCN(S(C)(=O)=O)Cc2cc(-c3cccc([C@H](O)[C@@H](O)C(N)=O)n3)ccc21 [Compound 125, (2R,3S)-2,3-dihydroxy-3-(6-(1-isobutyl-4-(methylsulfonyl)-2,3,4,5-tetrahydro-1H-benzo[e][1,4]diazepin-7-yl)pyridin-2-yl)propanamide] | – | 7.1 ± 2.45 | – |
| NC1=N[C@H](O)[C@H]2[C@H]3O[C@]4(O)O[C@@H]([C@@H](O)[C@@]2(N1)[C@@H]4O)[C@]3(O)CO [TTX, tetrodotoxin] | – | – | IC50 (Nav1.3): 15 nM; IC50 (Nav1.6): 6 nM; IC50 (Nav1.8): 50000 nM; IC50 (Nav1.9): 1000 nM; IC50 (Nav1.1): 10 nM; IC50 (Nav1.2): 10 nM |
